Experimental data published in paper PMC11785791, “Cryo-EM structure of the calcium-sensing receptor complexed with the kokumi substance γ-glutamyl-valyl-glycine” (Scientific Reports, 2025).

Assay type: physicochemical
Conditions: pH 7.4

Solubility in the assay buffer: low solubility
SMILES: N[C@@H](Cc1c[nH]c2ccccc12)C(=O)O [L-Trp, L-tryptophan]
